Source: the supplement of paper PMC11208160

Assay: recombinant barcode read abundance after kanamycin selection (control-corrected) (log10(CPM+1)); higher = more efficient recombination; sequences stand for … in AGTGCAGAGAAAATCGGCCAGTTTTCTCTGCCTGCAGTCCGCATGCCGT…AGATTTATGCAGCGGACTGCCTTTCTCCCAAAGTGATAAACCGGACAGTATCATGGACCGGTTTTCCCGGTAATCCGTATTTGCAAGGTTGGTTTCACT; site = the 11-nt target
In short: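 For this pooled screen, each oligo contained a promoter, a target, a barcode and the J23119-driven first 104 bases of the bridge RNA. Gibson cloning placed it into a vector supplying the remaining 73 bp and a T7-inducible recombinase, and the pool was co-electroporated into E. coli with a donor plasmid. Recombination efficiency is derived from barcode counts per million at recombinant junctions after averaging and control correction, and is expressed on a log scale as log10(CPM+1), with selection on chloramphenicol/ampicillin/kanamycin plus 0.1 mM IPTG against a chloramphenicol/ampicillin LB agar control.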
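Also: IS621 recombinase and bridge RNA in Escherichia coli cells.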

Q: Which “recombinant barcode read abundance (log10)” value does the source give for “TACGAGGCTTGGGTTCTAACCTGTTGCCT (site TACGTGGCTAG)” here?
A: The value was 0.0666.

Q: Which “recombinant barcode read abundance (log10)” value does the source give for “TACGCTCCTTGGGTTCTAACCTGTTGCAT (site TACGCTCCTAA)” here?
A: Its value is 0.053.

Q: For “TACGCTCCTTGGGTTCTAACCTGTTGCAT (site TACGCTCCTAC)”, which “recombinant barcode read abundance (log10)” value is on record?
A: Its value is 0.0178.

Q: For “TACGCTCCTTGGGTTCTAACCTGTTGCAT (site TACGCTCCTAG)”, which “recombinant barcode read abundance (log10)” value is on record?
A: The value was 0.284.

Q: Which “recombinant barcode read abundance (log10)” value does the source give for “TACGCTCCTTGGGTTCTAACCTGTTGCAT (site TACGCTCCTAT)” here?
A: Its value is 0.785.

Q: Which “recombinant barcode read abundance (log10)” value does the source give for “TACGCTCCTTGGGTTCTAACCTGTTGCTT (site TACGCTCCTAA)” here?
A: The value was 0.243.

Q: For “TACGCTCCTTGGGTTCTAACCTGTTGCTT (site TACGCTCCTAC)”, which “recombinant barcode read abundance (log10)” value is on record?
A: The value was 0.176.

Q: Which “recombinant barcode read abundance (log10)” value does the source give for “TACGCTCCTTGGGTTCTAACCTGTTGCTT (site TACGCTCCTAG)” here?
A: Its value is 0.0812.

Q: With “TACGCTCCTTGGGTTCTAACCTGTTGCTT (site TACGCTCCTAT)” as the sequence, how does the “recombinant barcode read abundance (log10)” value read?
A: The value was 0.017.

Q: For “TACTATACTTGGGTTCTAACCTGTTGCCT (site TACTATACTAG)”, which “recombinant barcode read abundance (log10)” value is on record?
A: Its value is 0.181.

Q: For “TACTATACTTGGGTTCTAACCTGTTGCCT (site TACTATCCTAG)”, which “recombinant barcode read abundance (log10)” value is on record?
A: The value was 0.131.

Q: For “TACTATACTTGGGTTCTAACCTGTTGCCT (site TACTATGCTAG)”, which “recombinant barcode read abundance (log10)” value is on record?
A: The value was 0.0468.

Q: With “TACTATACTTGGGTTCTAACCTGTTGCCT (site TACTATTCTAG)” as the sequence, how does the “recombinant barcode read abundance (log10)” value read?
A: Its value is 0.149.

Q: With “TACTATCCTTGGGTTCTAACCTGTTGCCT (site TACTATACTAG)” as the sequence, how does the “recombinant barcode read abundance (log10)” value read?
A: Its value is 0.0496.

Q: For “TACTATCCTTGGGTTCTAACCTGTTGCCT (site TACTATCCTAG)”, which “recombinant barcode read abundance (log10)” value is on record?
A: Its value is 0.441.

Q: With “TACTATCCTTGGGTTCTAACCTGTTGCCT (site TACTATGCTAG)” as the sequence, how does the “recombinant barcode read abundance (log10)” value read?
A: Its value is 0.

Q: With “TACTATCCTTGGGTTCTAACCTGTTGCCT (site TACTATTCTAG)” as the sequence, how does the “recombinant barcode read abundance (log10)” value read?
A: The value was 0.162.

Q: Which “recombinant barcode read abundance (log10)” value does the source give for “TACTATGCTTGGGTTCTAACCTGTTGCCT (site TACTATACTAG)” here?
A: The value was 0.211.

Q: With “TACTATGCTTGGGTTCTAACCTGTTGCCT (site TACTATCCTAG)” as the sequence, how does the “recombinant barcode read abundance (log10)” value read?
A: The value was 0.163.

Q: With “TACTATGCTTGGGTTCTAACCTGTTGCCT (site TACTATGCTAG)” as the sequence, how does the “recombinant barcode read abundance (log10)” value read?
A: Its value is 1.19.

Q: Which “recombinant barcode read abundance (log10)” value does the source give for “TACTATGCTTGGGTTCTAACCTGTTGCCT (site TACTATTCTAG)” here?
A: The value was 0.187.

Q: For “TACTCCGCTTGGGTTCTAACCTGTTGCCT (site GACTCCGCTAG)”, which “recombinant barcode read abundance (log10)” value is on record?
A: Its value is 0.031.

Q: With “TACTCCGCTTGGGTTCTAACCTGTTGCCT (site TACTCCGCTAG)” as the sequence, how does the “recombinant barcode read abundance (log10)” value read?
A: Its value is 1.02.

Q: Which “recombinant barcode read abundance (log10)” value does the source give for “TACTGAGCTTGGGTTCTAACCTGTTGCCT (site CACTGAGCTAG)” here?
A: Its value is 0.0308.

Q: For “TACTGAGCTTGGGTTCTAACCTGTTGCCT (site TACTGAGCTAG)”, which “recombinant barcode read abundance (log10)” value is on record?
A: Its value is 0.52.

Q: With “TAGAACTCTTGGGTTCTAACCTGTTGCCT (site TAGAACTCTAG)” as the sequence, how does the “recombinant barcode read abundance (log10)” value read?
A: Its value is 0.914.

Q: With “TAGAACTCTTGGGTTCTAACCTGTTGCCT (site TAGAACTCTCG)” as the sequence, how does the “recombinant barcode read abundance (log10)” value read?
A: The value was 0.0641.

Q: With “TAGAACTCTTGGGTTCTAACCTGTTGCCT (site TAGAACTCTGG)” as the sequence, how does the “recombinant barcode read abundance (log10)” value read?
A: The value was 0.156.

Q: Which “recombinant barcode read abundance (log10)” value does the source give for “TAGAACTCTTGGGTTCTAACCTGTTGCCT (site TAGAACTCTTG)” here?
A: The value was 0.119.

Q: For “TAGAACTCTTGGGTTCTAACCTGTTGCGT (site TAGAACTCTAC)”, which “recombinant barcode read abundance (log10)” value is on record?
A: The value was 1.07.

Q: For “TAGAACTCTTGGGTTCTAACCTGTTGCGT (site TAGAGCTCTAC)”, which “recombinant barcode read abundance (log10)” value is on record?
A: The value was 0.119.

Q: With “TAGAAGACTTGGGTTCTAACCTGTTGCTC (site TAGAAGACTAA)” as the sequence, how does the “recombinant barcode read abundance (log10)” value read?
A: Its value is 0.216.

Q: For “TAGAAGACTTGGGTTCTAACCTGTTGCTC (site TAGAAGACTCA)”, which “recombinant barcode read abundance (log10)” value is on record?
A: Its value is 0.178.

Q: Which “recombinant barcode read abundance (log10)” value does the source give for “TAGAAGACTTGGGTTCTAACCTGTTGCTC (site TAGAAGACTGA)” here?
A: The value was 1.44.

Q: For “TAGAAGACTTGGGTTCTAACCTGTTGCTC (site TAGAAGACTTA)”, which “recombinant barcode read abundance (log10)” value is on record?
A: Its value is 0.0266.

Q: Which “recombinant barcode read abundance (log10)” value does the source give for “TAGAAGTCTTGGGTTCTAACCTGTTGCAG (site TAGAAGTCTCT)” here?
A: Its value is 1.9.
